We go through 18 compounds from PubChem BioAssay AID330 (DTP/NCI, 2004).

SMILES strings stand for the structures. Where “and” joins values, the source holds several entries; their conditions need not be identical. Equal values may be shown once. Toxic doses and inconclusive results are not listed.

This assay concerns P388 leukemia ip, CD2F1 mice, survival T/C. The assay can be described thus: NCI In Vivo Anticancer Drug Screen. Data for tumor model P388 Leukemia (intraperitoneal) in CD2F1 (CDF1) mice. The settings on record: endpoint: median survival time, higher = longer survival. The gist of the method:
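Mice carrying the transplanted tumor received test compound or vehicle. Survival was recorded in each group, and the value is the treated-group measurement divided by that of the vehicle-treated control group.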

[1] abbreviates: dose: 25.0 mg/kg/injection, schedule: Q01DX009 (ip), vehicle: saline with Tween-80.
[2] abbreviates: dose: 50.0 mg/kg/injection, schedule: Q01DX009 (ip), vehicle: saline with Tween-80.
The mark [3] stands for this setting: dose: 50.0 mg/kg/injection, schedule: Q01DX009 (ip), vehicle: saline.
Setting [4] is: dose: 100.0 mg/kg/injection, schedule: Q01DX009 (ip), vehicle: saline.
[5] abbreviates: dose: 100.0 mg/kg/injection, schedule: Q04DX003 (ip), vehicle: saline.
Setting [6] is: dose: 200.0 mg/kg/injection, schedule: Q01DX009 (ip), vehicle: saline.
Where [7] appears, read: dose: 200.0 mg/kg/injection, schedule: Q04DX003 (ip), vehicle: saline.
The mark [8] stands for this setting: dose: 400.0 mg/kg/injection, schedule: Q04DX003 (ip), vehicle: saline.
[9] abbreviates: dose: 100.0 mg/kg/injection, schedule: Q01DX001 (ip), vehicle: saline with Tween-80.
The mark [10] stands for this setting: dose: 200.0 mg/kg/injection, schedule: Q01DX001 (ip), vehicle: saline with Tween-80.
The mark [11] stands for this setting: dose: 400.0 mg/kg/injection, schedule: Q01DX001 (ip), vehicle: saline with Tween-80.
Where [12] appears, read: dose: 50.0 mg/kg/injection, schedule: Q01DX005 (ip), vehicle: saline with Tween-80.
Where [13] appears, read: dose: 100.0 mg/kg/injection, schedule: Q01DX005 (ip), vehicle: saline with Tween-80.
Setting [14] is: dose: 200.0 mg/kg/injection, schedule: Q01DX005 (ip), vehicle: saline with Tween-80.

Turning to `Nc1nc2[nH]c(=O)cnc2c(=O)[nH]1`, the T/C was 107 % of control (dose: 12.5 mg/kg/injection, schedule: Q01DX009 (ip), vehicle: saline with Tween-80); 107 % of control under setting [1]; 108 % of control under setting [2]; 106 % of control (dose: 50.0 mg/kg/injection, schedule: Q01DX009 (ip), vehicle: suspension in saline); 91 % of control (dose: 100.0 mg/kg/injection, schedule: Q01DX009 (ip), vehicle: suspension in saline); 107 % of control (dose: 200.0 mg/kg/injection, schedule: Q01DX009 (ip), vehicle: suspension in saline). Besides, the T/C (dose: 300.0 mg/kg/injection, schedule: Q01DX009 (ip), vehicle: saline) was 91 % of control.

With `COC1=CP(C)(=S)CC1` (stereo not drawn), the T/C is 112 % of control (dose: 100.0 mg/kg/injection, schedule: Q04DX003 (ip), vehicle: Klucel (hydroxypropylcellulose) (HPC)) and 98 % of control (dose: 200.0 mg/kg/injection, schedule: Q04DX003 (ip), vehicle: Klucel (hydroxypropylcellulose) (HPC)).

On to `O=C1CNC(=O)CN1`, for which the T/C by setting is: under setting [3], 96 % of control; under setting [4], 90 % of control; under setting [5], 100 % of control; under setting [6], 97 % of control; under setting [7], 91 % of control; under setting [8], 100 % of control.

Regarding `CN(C)C(=C1C=CC=C/C1=N/S(=O)(=O)c1ccccc1)N(C)C`, the T/C was 103 % of control under setting [5], 108 % of control under setting [7] and 105 % of control under setting [8].

For the compound `Cc1ccc(C(C)(N=[N+]=[N-])c2ccccc2)cc1C` (stereo not drawn), the T/C is, setting by setting: under setting [1], 91 % of control; under setting [2], 108 % of control; (dose: 100.0 mg/kg/injection, schedule: Q01DX009 (ip), vehicle: saline with Tween-80) 109 % of control.

Consider `O=C1N=C2SCCN2C(=O)C1Nc1ccc(Cl)cc1` (stereo not drawn), for which the T/C by setting is: (dose: 100.0 mg/kg/injection, schedule: Q04DX002 (ip), vehicle: saline with Tween-80) 99 % of control; (dose: 200.0 mg/kg/injection, schedule: Q04DX002 (ip), vehicle: saline with Tween-80) 100 % of control; (dose: 400.0 mg/kg/injection, schedule: Q04DX002 (ip), vehicle: saline with Tween-80) 98 % of control.

On to `CN1C(=O)C2CC(O)C(SC3CC4C(=O)N(C)C(=O)C4CC3O)CC2C1=O` (stereo not drawn), for which the T/C (dose: 25.0 mg/kg/injection, schedule: Q01DX009 (ip), vehicle: water) is 98 % of control; the T/C (dose: 50.0 mg/kg/injection, schedule: Q01DX009 (ip), vehicle: water) is 100 % of control; the T/C (dose: 100.0 mg/kg/injection, schedule: Q01DX009 (ip), vehicle: water) was 98 % of control; the T/C (dose: 200.0 mg/kg/injection, schedule: Q01DX009 (ip), vehicle: water) was 98 % of control.

With `O=C1CCCCC=C1Cl`, the T/C was 96 % of control under setting [3], 98 % of control under setting [4] and 108 % of control under setting [6].

With `O=C(O)C(=O)O.[Cu+2].[NH-]C1CCCC2CCC[N-]C12` (stereo not drawn), the T/C by setting is: (dose: 7.5 mg/kg/injection, schedule: Q04DX002 (ip), vehicle: suspension in saline) 89 % of control; (dose: 15.0 mg/kg/injection, schedule: Q04DX002 (ip), vehicle: suspension in saline) 92 % of control; (dose: 30.0 mg/kg/injection, schedule: Q04DX002 (ip), vehicle: suspension in saline) 90 % of control.

For `O=[N+]([O-])c1ccc2c(c1)C(N1CCOCC1)c1ccccc1-2` (stereo not drawn), the T/C (dose: 50.0 mg/kg/injection, schedule: Q01DX005 (ip), vehicle: Klucel (hydroxypropylcellulose) (HPC)) was 98 % of control; the T/C (dose: 100.0 mg/kg/injection, schedule: Q01DX005 (ip), vehicle: Klucel (hydroxypropylcellulose) (HPC)) was 98 % of control; the T/C (dose: 200.0 mg/kg/injection, schedule: Q01DX005 (ip), vehicle: Klucel (hydroxypropylcellulose) (HPC)) is 100 % of control.

Consider `CCOC(=O)C1=C(N)CCC2(C1)c1ccccc1-c1ccccc12`, for which the T/C under setting [9] was 97 % of control, the T/C under setting [10] was 103 % of control and the T/C under setting [11] was 93 % of control.

Consider `COC(=O)Nc1cccc(-c2nc3ccc(NC(=O)OC)cc3c(=O)n2-c2ccccc2)c1`, for which the T/C runs as follows: (dose: 6.25 mg/kg/injection, schedule: Q01DX009 (ip), vehicle: Klucel (hydroxypropylcellulose) (HPC)) 111 % of control; (dose: 8.0 mg/kg/injection, schedule: Q01DX005 (oral), vehicle: Klucel (hydroxypropylcellulose) (HPC)) 109 % of control and 92 % of control; (dose: 12.5 mg/kg/injection, schedule: Q01DX009 (ip), vehicle: Klucel (hydroxypropylcellulose) (HPC)) 112 % of control; (dose: 16.0 mg/kg/injection, schedule: Q01DX005 (oral), vehicle: Klucel (hydroxypropylcellulose) (HPC)) 110 % of control and 111 % of control; (dose: 16.0 mg/kg/injection, schedule: Q01DX005 (oral), vehicle: saline) 108 % of control; (dose: 25.0 mg/kg/injection, schedule: Q01DX009 (ip), vehicle: Klucel (hydroxypropylcellulose) (HPC)) 153 % of control. Besides, the T/C was 110 % of control (dose: 25.0 mg/kg/injection, schedule: Q01DX009 (ip), vehicle: saline); 114 % of control (dose: 25.0 mg/kg/injection, schedule: Q01DX009 (oral), vehicle: Klucel (hydroxypropylcellulose) (HPC)); 112 % of control (dose: 32.0 mg/kg/injection, schedule: Q01DX005 (oral), vehicle: Klucel (hydroxypropylcellulose) (HPC)); 121 % of control (dose: 32.0 mg/kg/injection, schedule: Q01DX005 (oral), vehicle: saline); 236 % of control under setting [3]; 118 % of control (dose: 50.0 mg/kg/injection, schedule: Q01DX009 (oral), vehicle: Klucel (hydroxypropylcellulose) (HPC)). Besides, the T/C was 102 % of control (dose: 64.0 mg/kg/injection, schedule: Q01DX005 (oral), vehicle: Klucel (hydroxypropylcellulose) (HPC)); 202 % of control and 236 % of control under setting [4]; 102 % of control (dose: 128.0 mg/kg/injection, schedule: Q01DX005 (oral), vehicle: Klucel (hydroxypropylcellulose) (HPC)); 171 % of control (dose: 128.0 mg/kg/injection, schedule: Q01DX005 (oral), vehicle: saline); 236 % of control (dose: 150.0 mg/kg/injection, schedule: Q01DX009 (ip), vehicle: saline); 181 % of control (dose: 200.0 mg/kg/injection, schedule: Q01DX009 (oral), vehicle: Klucel (hydroxypropylcellulose) (HPC)). Moreover, the T/C runs as follows: (dose: 400.0 mg/kg/injection, schedule: Q01DX009 (oral), vehicle: Klucel (hydroxypropylcellulose) (HPC)) 183 % of control; (dose: 800.0 mg/kg/injection, schedule: Q01DX009 (oral), vehicle: Klucel (hydroxypropylcellulose) (HPC)) 205 % of control.

Take `CCn1nnnc1Nc1ccccc1`: the T/C by setting is: (dose: 50.0 mg/kg/injection, schedule: Q01DX009 (ip), vehicle: Klucel (hydroxypropylcellulose) (HPC)) 120 % of control; (dose: 100.0 mg/kg/injection, schedule: Q01DX009 (ip), vehicle: Klucel (hydroxypropylcellulose) (HPC)) 123 % of control; (dose: 200.0 mg/kg/injection, schedule: Q01DX009 (ip), vehicle: Klucel (hydroxypropylcellulose) (HPC)) 113 % of control.

On to `C=CC1CC(NC(=O)OCCCC)C(=O)O1` (stereo not drawn), for which the T/C was 99 % of control under setting [12], 101 % of control under setting [13] and 102 % of control under setting [14].

`COc1ccc(/C=N/Nc2nnc3c4ccccc4n(C)c3n2)cc1`: the T/C under setting [9] was 89 % of control, the T/C under setting [10] was 91 % of control and the T/C under setting [11] is 107 % of control.

In the case of `CSc1nc2c(nnn2C2OC(CO)C(O)C(O)C2O)c(=O)[nH]1` (stereo not drawn), the T/C by setting is: (dose: 60.0 mg/kg/injection, schedule: Q01DX005 (ip), vehicle: saline with Tween-80) 100 % of control; (dose: 120.0 mg/kg/injection, schedule: Q01DX005 (ip), vehicle: saline with Tween-80) 97 % of control; (dose: 240.0 mg/kg/injection, schedule: Q01DX005 (ip), vehicle: saline with Tween-80) 102 % of control.

Consider `BrC(Br)=C(Br)Br`, for which the T/C is 100 % of control under setting [3], 104 % of control under setting [4] and 104 % of control under setting [6].

`COC(=O)c1c(C(N)=O)c(C)n(NC(=O)Nc2ccccc2)c1C`: the T/C is 96 % of control under setting [12], 89 % of control under setting [13] and 94 % of control under setting [14].
